A short description of the data set: gradient 5% acetonitrile 3 min, to 50% in 2 min, to 85% in 15 min, held 3 min, 100 µL/min. The following applies: column: Zorbax Extend-C18 2.1 x 50 mm; eluents: water / acetonitrile, 0.1% formic acid. In short, it runs like this:
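The mobile phases were water and acetonitrile, each with 0.1% formic acid, pumped at 100 μL/min through a Zorbax Extend-C18 column (2.1 × 50 mm, 1.8 μm). Pure standards were injected as mixtures of ~100 molecules and detected by a quadrupole time-of-flight mass spectrometer in positive and negative ionization mode. Retention time came from computationally picked adduct peaks, each inspected by hand.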
In turn, `CN(Cc1ccccc1)C(=O)c1ccc(CN2CCN(C3CCCC3)C(=O)C2=O)cc1` gave an RP-LC retention time of 763 s. The same measure for `COCCNC(=O)Cn1nc2cc(C)nc(-c3ccc(C(F)(F)F)cc3)n2c1=O`: 726 s; for `Cc1nnc(-c2ccncc2)o1`: 547 s; for `O=C(COc1ccccc1F)NCC1(c2cccs2)CCOCC1`: 790 s. The compound `CC1(C(=O)NCc2ccc(F)cc2)Cn2cnc(C(=O)NCc3ccc(F)cc3)c2C(=O)N1C1CC1` (centres undefined) came in with an RP-LC retention time of 777 s. The result for `Cc1ccc(CNC(=O)c2nc3cccnc3n(C)c2=O)cc1` reads 787 s; that for `O=S(=O)(c1ccc2nc(N3CCN(c4ccccc4F)CC3)ccc2c1)N1CCCCC1`, 1160 s; that for `CC(=O)NCCCOc1ccc([N+](=O)[O-])cc1Cl`, 786 s.

`Cc1ccc(-n2nc(C)c3c(C)cc(OCC(=O)NCc4ccc5c(c4)OCO5)nc32)cc1` displayed an RP-LC retention time of 1060 s. The result for `CCc1nn2c(CNS(=O)(=O)c3ccc(F)cc3F)c(-c3ccccc3)nc2s1` reads 942 s; that for `Cc1ccc(-c2noc(-c3cccc(S(=O)(=O)N(C)Cc4ccco4)c3)n2)cc1`, 1260 s.

Take `CCCCOc1cc(CC2CNC(=O)N2)ccc1OC` (centres undefined): the RP-LC retention time came out at 798 s. The same measure for `Cc1ccc(S(=O)(=O)N2CCCN(c3ccc(=O)n(-c4ccccc4)n3)CC2)c(C)c1`: 916 s. The same measure for `CC1=C(C(=O)NCCN2CCOCC2)C2(CCN(Cc3ccccc3)CC2)OC1=O`: 634 s.

The compound `CC(=O)N1CCC(c2nc(-c3ccc4c(c3)ncn4CCN3CCCC3)no2)CC1` displayed an RP-LC retention time of 553 s. The result for `Cc1ccc(NC(=O)Cn2nc3cc(-c4ccccc4)nc(C)n3c2=O)cc1F` reads 976 s; that for `COc1ccc(C(=O)Nc2ccc3c(c2)Sc2ncccc2C(=O)N3C(C)C)cc1F`, 894 s; that for `COc1nc(-c2ccc3c(c2)OCO3)n(-c2ccc(NC(=O)CSc3ccccc3)cc2)n1`, 894 s.

`C/C(=C\c1csc(C)n1)[C@@H]1C[C@@H]2O[C@]2(C)CCC[C@H](C)[C@H](O)[C@@H](C)C(=O)C(C)(C)[C@@H](O)CC(=O)N1` yielded an RP-LC retention time of 707 s. The result for `CS(=O)(=O)Nc1cccc(NC(=O)Cc2csc(NC(=O)c3ccsc3)n2)c1` reads 676 s. The same measure for `Cc1c(C(=O)N2CCCC2)cnn1-c1ccc(-c2nc(C3CC3)no2)cn1`: 877 s; for `O=C(NCc1cc(F)ccc1F)c1cn2c(n1)CCCC2`: 601 s; for `O=C(Nc1cccc2cccnc12)C1CCN(c2ccc(-n3cccn3)nn2)CC1`: 745 s. Regarding `CN1C(=O)c2cccnc2Sc2cc(NC(=O)c3ccccc3F)ccc21`, the RP-LC retention time turned out to be 758 s.

As to `Cc1ccc(N2CC(c3noc(-c4cc(Cl)ccc4F)n3)CC2=O)cc1` (centres undefined), the RP-LC retention time was found to be 1090 s. The same measure for `O=C(NCC(O)(c1ccccc1)C(F)(F)F)c1cccs1` (centres undefined): 815 s; for `O=C(COc1ccccc1F)N1CCC(Oc2nc3ccccc3s2)CC1`: 986 s; for `CC(C)c1noc(-c2cccnc2N2CCCN(C(=O)NCc3ccccc3)CC2)n1`: 920 s.

On to `O=C(NCc1ccccc1F)c1ccc2c(c1)CN(C1CCSCC1)CCO2`, for which the RP-LC retention time came to 584 s.

In the case of `Cc1cccc(N2CCN(C(=O)c3ccc(CN4CCN(C(C)C)C(=O)C4=O)cc3)CC2)c1`, the RP-LC retention time was 759 s. As to `CS(=O)(=O)NCCS(=O)(=O)N1CCN(c2ccccc2F)CC1`, the RP-LC retention time was 723 s. The same measure for `Cc1ccc(C)c(NC(=O)Cn2c(=O)cc(-c3nc(C)no3)c3ccccc32)c1`: 910 s; for `CC(=O)N1CCCSc2ccc(S(=O)(=O)N3CCN(c4ccc(Cl)cc4)CC3)cc21`: 983 s; for `COc1ccc(-n2nnc(-c3nsc(Nc4ccc(OC)c(Cl)c4)n3)c2C)cc1`: 1010 s.

`Cc1cc2nc(C(=O)Nc3cccc(C)c3C)cc(C)n2n1` registered an RP-LC retention time of 1020 s. For the compound `O=C(NCc1ccc(F)cc1)C1(CCO)CCN(c2ncccn2)C1` (centres undefined), the RP-LC retention time was 609 s.

Regarding `CN(C)c1cc(C(=O)NC2CC2)c2ccccc2n1`, the RP-LC retention time worked out at 565 s.

`Cc1ccc(Sc2nccnc2N2CCC(C(=O)NCC3CCCO3)CC2)cc1` (centres undefined) gave an RP-LC retention time of 814 s. The same measure for `COc1ccc(S(=O)(=O)N2C[C@@H]3C[C@H](NC(=O)c4ccccc4)[C@H]2C3)cc1Cl`: 907 s; for `COc1ccc(-c2ncc3c(=O)n(Cc4ccc(Br)cc4F)c(=O)n(C)c3n2)cc1`: 1290 s. The same measure for `O=C(Nc1cnc(N2CCOCC2)nc1)c1ccccc1Br`: 725 s; for `Cc1csc(-c2cc(S(=O)(=O)N3CCCCC3)cn2CC(=O)N2CCCC2)n1`: 890 s; for `CCC(CC)NC(=O)C1CCN(c2cn[nH]c(=O)c2)C1` (centres undefined): 612 s.

For `Cc1nn(-c2nc(-c3ccc(Cl)cc3)cs2)c(C)c1CC(=O)N1CCCCC1`, the RP-LC retention time came out at 1260 s. The same measure for `CCCn1c(=O)c2cc(C(=O)NCc3ccc(N4CCOCC4)cc3)nn2c2ccccc21`: 842 s. The same measure for `CC(C)n1cc2cc(C(=O)N(C)CCc3ccncc3)sc2c1`: 709 s; for `COc1ccc(-c2cn3c(CC(=O)Nc4ccc(F)c(F)c4)csc3n2)cc1OC`: 774 s. `Cc1ccc(-c2nc(-c3cccc(-c4ccn[nH]4)c3)no2)cc1C` showed an RP-LC retention time of 1150 s. The compound `O=C(Cc1c(F)cccc1Cl)N1C[C@@H]2C[C@H]1C[C@@H]2NS(=O)(=O)c1ccccc1` showed an RP-LC retention time of 852 s. The same measure for `Cc1ccccc1S(=O)(=O)Nc1ccc(C2(C(=O)NCC3CCCO3)CC2)cc1` (centres undefined): 797 s; for `CCOC(=O)c1c(C)[nH]c(C(=O)N2CCC(CC(=O)N3CCN(C4CCCCC4)CC3)CC2)c1C`: 624 s; for `COc1ccc(NC(=O)N2CCc3c(c(-c4nnc(-c5ccccc5Cl)o4)nn3C)C2)cc1`: 853 s. The result for `CC(C)n1c(CN2CCCC2)nc2cc(NC(=O)c3ccco3)ccc21` reads 610 s; that for `CCNc1nc(C)cc(N2CCN(S(=O)(=O)c3cc(C(C)(C)C)ccc3OC)CC2)n1`, 803 s; that for `CCOCCCNC(=O)Cn1c(=O)c2cccn2c2ccccc21`, 689 s. The same measure for `Cc1ccc(CN(C)C(=O)NC(C)C)s1`: 804 s; for `CC(=O)c1ccc(N(C(C)=O)S(=O)(=O)c2ccc(Cl)cc2)cc1`: 841 s; for `CCc1noc(NC(C)=O)c1-c1ccc(OC)c(S(=O)(=O)NC(C)CC)c1` (centres undefined): 746 s. `COCCCNC(=O)C1CCCN(c2nc3ccc(Cl)cc3[nH]2)C1` (centres undefined) showed an RP-LC retention time of 610 s. Compound `O=C(NCCCN1CCOCC1)c1nc2ccccn2c1-c1ccc(Cl)cc1` gave an RP-LC retention time of 629 s.

As to `CS(=O)(=O)N1C[C@H]2CCN(Cc3ccc(F)cc3F)C[C@H]21`, the RP-LC retention time worked out at 584 s. The same measure for `Cc1cccc2c(C(=O)NCC(C)C)c3c(nc12)CCC3`: 688 s; for `Cc1oc(C2CCN(C(=O)Nc3ccc(Br)cc3)CC2)nc1C(=O)N(C)C`: 759 s. The same measure for `COc1ccc(-c2nnc3sc(-c4cccnc4)nn23)cc1OC`: 695 s; for `CCc1noc([C@@H]2CC(F)(F)CN2C(=O)CCn2ccnc2)n1`: 590 s. As for `CC(=O)Nc1cccc(NC(C)=O)n1`, the RP-LC retention time came out at 609 s. Compound `COc1ccc(NS(=O)(=O)c2cccc(-c3nc(-c4ccccc4)no3)c2)cc1` gave an RP-LC retention time of 1100 s. `O=C(Nc1ccc(Br)cc1F)N1CCc2nc[nH]c2C1` came in with an RP-LC retention time of 593 s.

Turning to `CCOC(=O)C1CCCN(C(=O)CCC(=O)N2CCCn3nc(C)cc32)C1` (centres undefined), the RP-LC retention time turned out to be 647 s. The compound `O=C(Nc1ccc(Cl)cc1)C(=O)c1cn(CC(=O)N2CCCC2)c2ccccc12` yielded an RP-LC retention time of 1020 s. The compound `CCS(=O)(=O)N1CC(=O)N(c2ccc(F)cc2C)C(C)(C(=O)NCc2ccc(F)cc2)C1` (centres undefined) gave an RP-LC retention time of 832 s. The result for `CCOc1ccccc1NC(=O)C1CCN(S(=O)(=O)c2cc(-c3noc(C)n3)cs2)CC1` reads 996 s.

For the compound `CSc1ncccc1C(=O)Nc1ccc(OCc2nnc(-c3ccccc3)o2)cc1`, the RP-LC retention time stood at 884 s. The same measure for `Cc1cc(=O)n(CC(C)O)c(-c2ccccc2)n1` (centres undefined): 753 s; for `O=c1cccnn1CCCNS(=O)(=O)c1ccc(F)c(C(F)(F)F)c1`: 741 s; for `COC[C@@H]1CN(Cc2cc(Cl)ccc2F)C[C@H]1c1nc(C)no1`: 639 s. The compound `Cc1csc(COc2ccc(C(=O)Nc3ccc4cn[nH]c4c3)cc2)n1` came in with an RP-LC retention time of 711 s. The same measure for `COc1ccc(OC)c(NC(=O)C2CCCN2S(=O)(=O)c2cc3c(cc2Cl)NC(=O)CO3)c1` (centres undefined): 829 s; for `Cc1ccn2cc(-c3ccc(NC(=O)c4ccccc4C(F)(F)F)cc3)nc2n1`: 664 s.

Source of the values: the METLIN SMRT retention time set (Domingo-Almenara et al. 2019).
